Measurements taken from PubChem BioAssay (NCI).
Several values for one entry are separate records, joined by “and”; a condition that tells them apart may be missing. Identical values can stand only once.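 Cells were grown in 96-well plates and exposed to each compound for 48 hours at five concentrations; endpoints were interpolated linearly between bracketing concentrations, or set to the highest concentration if not reached. GI50: concentration for 50% inhibition of growth. TGI is the concentration that stops growth completely.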

System: MDA-MB-468 breast
Test: inhibition of tumour cell growth, NCI panel, 48 h

Row | SMILES | GI50 | TGI
1 | CCNC(=O)N1CCc2cc(OC)c(OCCc3ccc(OC)cc3)cc2C1c1ccc(OC)cc1C (stereo not given) | 1930 nM | > 30200 nM
2 | CCOc1cc(F)c([N+](=O)[O-])cc1[N+](=O)[O-] | 1860 nM | 3510 nM
3 | COc1ccc2c(c1)C=CC1(O2)Oc2ccc(OC)cc2C=C1C (stereo not given) | 876 nM | > 100000 nM
4 | O=C(Nc1ncc(Cc2ccccc2)s1)c1sc2ccccc2c1Cl | 1400 nM | 18700 nM
5 | CN[C@@H](C)C(=O)N[C@H]1CCS[C@H]2CC(C)(C)[C@@H](C(=O)N[C@H]3c4ccccc4C[C@H]3OCC#CC#CCO[C@@H]3Cc4ccccc4[C@@H]3NC(=O)[C@H]3N4C(=O)[C@@H](NC(=O)[C@H](C)NC)CCS[C@H]4CC3(C)C)N2C1=O | < 5 nM | 16.4 nM
6 | Nc1n[nH]c2cccc(C#Cc3cccc(NC(=O)c4ccc(N5CCOCC5)c(C(F)(F)F)c4)c3)c12 | 2280 nM | 6820 nM
7 | O=C1/C=C/[C@@H](O)[C@@H]2C[C@@H](O)C[C@H]2/C=C/CCC[C@H](CCOCc2ccccc2)O1 | < 16.1 nM | 31.2 nM
8 | Clc1ccc2c(N3CCN(c4ccnc(NC5CCCCC5)n4)CC3)ccnc2c1 | 1640 nM | 3600 nM
9 | COC1=C(OC)C(=O)C(CCCCCCCCCC[P+](c2ccccc2)(c2ccccc2)c2ccccc2)=C(C)C1=O | 66.8 nM | 694 nM
10 | COc1ccc2cc(C#Cc3ccc(-n4c(/C=C/c5cc(OC)c(OC)c(OC)c5)nc5ccccc5c4=O)c(C)c3)ccc2c1 | 3800 nM | > 100000 nM
11 | CNC(=O)c1ccccc1Nc1cc(Nc2ccc(N3CCOCC3)cc2OC)ncc1C(F)(F)F | 27800 nM | 97800 nM
12 | COc1cc(/C=C/C(=O)c2ccc(Nc3nc(NCCO)nc(N4CCOCC4)n3)cc2)cc(OC)c1OC | 1340 nM | 3760 nM
13 | C=CC(=O)N1CCN(CCCn2c(=O)c(-c3c(Cl)c(OC)cc(OC)c3Cl)cc3cnc(NC)nc32)CC1 | 1240 nM | 5900 nM
14 | COc1cc(Nc2ccnc(NCCNc3ccnc4cc(Cl)ccc34)n2)cc(OC)c1 | 1040 nM | 3330 nM
15 | Cc1ccc(C)c(NC2=C(Cl)C(=O)c3nc(C)ccc3C2=O)c1 | 1510 nM | 3080 nM
16 | O=C(Cc1n[nH]c(=O)c2ccccc12)OCc1c(Cl)cccc1Cl | > 100000 nM | > 100000 nM
17 | O=C(C[n+]1cccc2cc(Cl)ccc21)c1ccc2c(c1)CCCC2 | 423 nM | 1820 nM
18 | O=C(Nc1ccc2[nH]c3ccccc3c2c1)c1ccccc1Cl | 2860 nM | 24900 nM
19 | NC(N)=NN=C(c1ccccc1)c1ccccc1 | 2200 nM | 12200 nM
20 | COc1ccc(/C(C)=C(\c2ccc(Cl)cc2)c2ccc(OCCN3CCCCC3)cc2)cc1 | 3670 nM | 8030 nM
21 | CC[N+](CC)=c1cc2oc3cc(N(C)C)ccc3nc-2cc1C | 1330 nM | 4390 nM
22 | Clc1ccc(C(Cn2ccnc2)OCc2ccsc2Cl)c(Cl)c1 (stereo not given) | 2300 nM | 7300 nM
23 | CC1CCCc2sc3nc(NNC(=O)c4cnccn4)n(-c4ccccc4)c(=O)c3c21 (stereo not given) | 333 nM and 239 nM | 2300 nM and 946 nM
24 | C[C@@H]1C[C@H]2C(=O)OCC(NC(=O)[C@H](Cc3cc(F)cc(F)c3)NC(=O)Nc3ccc(Cl)cc3F)C(=O)N3CCC[C@H]3C(=O)N3CCCC[C@H]3C(=O)N[C@@H](C)C(=O)N2C1 (stereo not given in full) | 1430 nM and 294 nM | 18800 nM and 2880 nM
25 | C[C@]12CC[C@@H]3c4ccc(O)cc4CC[C@H]3[C@@H]1CC[C@@H]2NS(=O)(=O)c1ccc(Cl)cc1 | 4940 nM | 17300 nM
